pIC50: −log10 of the molar value.
Molecular target: AP2-associated protein kinase 1 (Homo sapiens, UniProt Q2M2I8)
Assay: In Vitro AAK1 Enzyme Activity Assay
Experimental: Compound stock solution (concentration: 10 mM, dissolved in DMSO) was diluted with DMSO to 0.2 mM and then diluted with DMSO in 5-fold gradient to obtain compound solutions with 10 concentrations. Subsequently, the compound solutions with different concentrations were diluted 50-fold in 1×kinase reaction buffer (containing 40 mM Tris, 20 mM MgCl2, 0.1% BSA and 0.5 mM DTT) for later use. AAK1 (Signalchem, Cat #A01-11G-10) was diluted with 1×kinase reaction buffer to 2-fold the final concentration (final concentrations: 30 nM and 28 nM). AAK1 was added to a 384-well white plate at 2 μL/well, and the compounds were then added at 1 μL/well. The plate was sealed with a plate-sealing film, centrifuged at 1000 rpm for 30 seconds and then placed at room temperature for 10 minutes. A mixed solution of ATP (Promega, Cat #V914B) and substrate Micro2 (GenScript, Cat #PE0890) was formulated at 4-fold the final concentration (for AAK1, the corresponding final concentrations of ATP: 15 μM and 5 μM, and the corresponding final concentration of Micro2: 0.1 mg/mL). To the reaction plate was added the mixed solution of ATP and the substrate at 1 μL/well.

AP2-associated protein kinase 1, sequence (Q2M2I8 whole entry): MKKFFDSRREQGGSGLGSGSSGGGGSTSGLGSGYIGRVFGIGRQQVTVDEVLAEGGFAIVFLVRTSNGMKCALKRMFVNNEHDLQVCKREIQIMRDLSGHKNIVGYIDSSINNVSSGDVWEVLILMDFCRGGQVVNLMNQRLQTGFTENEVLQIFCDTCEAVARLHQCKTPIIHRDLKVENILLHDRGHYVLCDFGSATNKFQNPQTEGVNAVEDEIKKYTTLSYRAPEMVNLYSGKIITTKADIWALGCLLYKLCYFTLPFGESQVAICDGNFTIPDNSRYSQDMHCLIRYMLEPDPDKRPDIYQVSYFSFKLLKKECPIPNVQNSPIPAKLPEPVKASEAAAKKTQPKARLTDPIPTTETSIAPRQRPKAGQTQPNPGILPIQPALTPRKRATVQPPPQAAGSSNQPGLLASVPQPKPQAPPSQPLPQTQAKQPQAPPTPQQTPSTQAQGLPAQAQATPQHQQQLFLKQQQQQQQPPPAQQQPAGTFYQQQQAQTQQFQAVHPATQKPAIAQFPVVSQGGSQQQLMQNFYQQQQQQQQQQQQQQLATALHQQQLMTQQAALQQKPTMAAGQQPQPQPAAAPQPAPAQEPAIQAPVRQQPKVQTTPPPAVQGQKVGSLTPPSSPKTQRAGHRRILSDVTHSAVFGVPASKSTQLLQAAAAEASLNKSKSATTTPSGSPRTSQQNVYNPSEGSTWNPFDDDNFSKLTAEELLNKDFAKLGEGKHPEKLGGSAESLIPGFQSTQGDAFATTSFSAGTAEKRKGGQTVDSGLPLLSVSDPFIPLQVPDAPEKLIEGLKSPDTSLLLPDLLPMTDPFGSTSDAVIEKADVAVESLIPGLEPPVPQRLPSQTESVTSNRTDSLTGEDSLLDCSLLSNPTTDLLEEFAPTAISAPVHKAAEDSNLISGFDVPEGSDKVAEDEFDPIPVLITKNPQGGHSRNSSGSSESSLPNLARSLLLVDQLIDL

## C=C(C)C[C@](C)(N)COc1cnc(-c2ccnc(NC(=O)OC)c2)cc1C(F)F [US20240343720, Compound 11]
  pIC50: 8.24

Reference: BindingDB's records for patent US20240343720 (Xizang Haisco Pharmaceutical, 2024)
